Values joined by “and” are separate entries in the source; they are usually repeats but may differ in a detail not shown here. Identical values can stand only once.
Legend:
[1] = test system: acute myocardial ischemia rats (coronary artery ligation); test: Serum creatine kinase (CK) and lactic dehydrogenase (LDH) of acute myocardial ischemia rats; assay type: in vivo, Sprague-Dawley male rats; settings: blood at 5 hours after coronary artery ligation, x ± SD; for LDH activity in blood serum: P < 0.01 vs model group; for CK activity in blood serum: P < 0.05 vs model group
Description: Sprague-Dawley male rats of clean grade weighting 200-220 g were supplied by the animal experimental center of the Second Military Medical University (license number: SCXK (Shanghai)-2007-0003). • 2.2.2 Experimental groups
Experimental rats were randomly divided into four groups: sham group: n=7, model group: n=8, MLIF low-dose group: n=8, MLIF high-dose group: n=9. The dose of medicine could be administrated according to rat body weight. MLIF low-dose group and MLIF high-dose group were administrated by tail intravenous injection prepared with normal saline as solvent at the dose of 0.15 mg/kg and 0.5 mg/kg, respectively. • 2.2.3 Coronary artery ligation and determination of CK and LDH in blood serum
Coronary artery ligations of rats were carried out as described previously. 3m1 blood sample of each animal was taken from femoral artery at 5 hours after coronary artery ligation and the blood serum was collected according to the method of convengtional centrifugalization. The creatine kinase (CK) and lactic dehydrogenase (LDH) activities in blood serum were measured by semi-automatic biochemical analyzer. • 2.2.4 Data and statistics analysis
(§1) All experimental data are given as x±SD. Differences between the groups were calculated by analysis of variance (SPSS 10.0).

[2] = test system: rat myocardial ischemia models induced by coronary artery ligation; test: Myocardial infarction area of rats after coronary artery ligation (N-BT staining); assay type: in vivo, Sprague-Dawley male rats; settings: 5 hours after coronary artery ligation, x ± SD
Description: Sprague-Dawley male rats of clean grade weighting 200-220 g were supplied by the animal experimental center of the Second Military Medical University (license number: SCXK (Shanghai)-2007-0003). • 2.1.2 Experimental groups
Experimental rats were randomly divided into four groups: sham group: n=8, model group: n=9, MLIF low-dose group: n=11, MLIF high-dose group: n=12. The dose of medicine could be administrated according to rat body weight. MLIF low-dose group and MLIF high-dose group were administrated by tail intravenous injection prepared with normal saline as solvent at the dose of 0.15 mg/kg and 0.5 mg/kg, respectively. • 2.1.3 Coronary artery ligation and measurement of myocardial infarction area of rats
The Sprague-Dawley male rats were abdomen anesthetized with 25% urethane (0.4 ml/100 g) and fixated at supine position. The chest was cut open among the fifth rib at left, and then the fourth and fifth ribs were cut off along the left side of sterna at 2 mm. The pericardium was snipped off with heart exposed, and a 0/3 suture line was passed through the left anterior descending coronary artery. The rats were administrated by tail intravenous injection slowly. After 10 minutes, the left anterior descending coronary artery was ligated rapidly and the heart was returned to its chest, removing the air within the thorax by hand, closing the thorax and tightening the purse-string suture rapidly. The entire process of opening and closing chest was performed within 30 seconds. The coronary arteries of rats of sham group were not ligated since the myocardial ischemia would be caused by coronary artery ligation.
The rats were administrated by tail intravenous injection with the dose of 0.15 mg/kg (MLIF low-dose group) and 0.5 mg/kg (MLIF high-dose group) at 15 minutes after coronary artery ligation with the same volume of normal saline administrated in sham group and model group. Each group of animals was executed at 5 hours after coronary artery ligation. The heart was taken out and the heart ventricle muscle was transversely chipped into 5 slices, the cut position of which was parallel to coronary sulcus under the coronary artery ligation line. The five slices of the heart ventricle muscle were stained with Nitroblue tetrazolium (N-BT) for 15 minutes with shaking. The normal heart ventricle muscle was dyed into dark blue while that of the area of myocardial infarction was unstained with normally light yellow. The area of myocardial infarction was isolated by a dissecting microscope and the whole heart weight, the left ventricle weight and the area of myocardial infarction weight were weighed, respectively, the percent (%) of area of myocardial infarction weight to whole heart weight were quantified as an measure on myocardial infarction area ranges. • 2.1.4 Data and statistics analysis
as §1

[3] = MLIF high-dose group 0.5 mg/kg tail i.v.
[4] = MLIF low-dose group 0.15 mg/kg tail i.v.
[5] = MLIF high-dose group 0.5 mg/kg tail i.v., P < 0.01 vs model group
[6] = MLIF low-dose group 0.15 mg/kg tail i.v., P < 0.05 vs model group

Met-Gln-Cys-Asn-Ser (MQCNS) [MLIF]
LDH activity in blood serum [1, 3]: 3642±817 IU/L and 3642 ± 817^ΔΔ, ** IU/L | CK activity in blood serum [1, 3]: 5244±1787.8 IU/L and 5244 ± 1787.8^ΔΔ, * IU/L | LDH activity in blood serum [1, 4]: 3156±864.1 IU/L and 3156 ± 864.1^ΔΔ, ** IU/L | CK activity in blood serum [1, 4]: 5258±2114.3 IU/L and 5258 ± 2114.3^ΔΔ, * IU/L | area of myocardial infarction weight [2, 3]: 158 ± 22.4^ΔΔ mg | area of myocardial infarction/ left ventricle [2, 5]: 30±3.7% and 30 ± 3.7^ΔΔ, ** % | area of myocardial infarction/ whole heart [2, 5]: 20±2.7% and 20 ± 2.7^ΔΔ, ** % | area of myocardial infarction weight [2, 4]: 187 ± 22.8^ΔΔ mg | area of myocardial infarction/ left ventricle [2, 6]: 33±3.2% and 33 ± 3.2^ΔΔ, * % | area of myocardial infarction/ whole heart [2, 6]: 22±1.9% and 22 ± 1.9^ΔΔ, * %

From patent publication US20130102535A1, “Method for Preventing Myocardial Ischemia” (Shanghai Bajiayi Pharmaceutical Science and Technology Co. …, priority 2009, published 2013)
